Reference: PubChem BioAssay AID1963874 (Molecular Pharmacology Branch, DTP, NCI, 2024)

Test system: 253994-281-T-J1-PDC KRAS-mutant spheroids with HUVEC/MSC, viability
Assay: Anticancer human tumor 253994-281-T-J1-PDC patient-derived colorectal carcinoma cell line growth inhibition [KRAS2]
Settings: for viability, T/C: stronger effect = lower value
How it was run: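 Combination screen of spheroid viability in tumor-cell co-cultures with endothelial (HUVEC) and mesenchymal stem cell stroma. Each agent was tested in half-log dilutions, topping at clinical Cmax or at 10 microM without a known Cmax.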

[1] = curve of first compound, second compound 0.1 µM
[2] = curve of first compound, second compound 0.316 µM
[3] = curve of first compound, second compound 1 µM
[4] = curve of first compound, second compound 3.16 µM
[5] = curve of first compound, second compound 10 µM
[6] = second compound 0.1 µM, first compound 0.000316 µM
[7] = second compound 0.1 µM, first compound 0.001 µM
[8] = second compound 0.1 µM, first compound 0.00316 µM
[9] = second compound 0.1 µM, first compound 0.01 µM
[10] = second compound 0.1 µM, first compound 0.0316 µM
[11] = second compound 0.1 µM, first compound 0.1 µM
[12] = second compound 0.316 µM, first compound 0.000316 µM
[13] = second compound 0.316 µM, first compound 0.001 µM
[14] = second compound 0.316 µM, first compound 0.00316 µM
[15] = second compound 0.316 µM, first compound 0.01 µM
[16] = second compound 0.316 µM, first compound 0.0316 µM
[17] = second compound 0.316 µM, first compound 0.1 µM
[18] = second compound 1 µM, first compound 0.000316 µM
[19] = second compound 1 µM, first compound 0.001 µM
[20] = second compound 1 µM, first compound 0.00316 µM
[21] = second compound 1 µM, first compound 0.01 µM
[22] = second compound 1 µM, first compound 0.0316 µM
[23] = second compound 1 µM, first compound 0.1 µM
[24] = second compound 3.16 µM, first compound 0.000316 µM
[25] = second compound 3.16 µM, first compound 0.001 µM
[26] = second compound 3.16 µM, first compound 0.00316 µM
[27] = second compound 3.16 µM, first compound 0.01 µM
[28] = second compound 3.16 µM, first compound 0.0316 µM
[29] = second compound 3.16 µM, first compound 0.1 µM
[30] = second compound 10 µM, first compound 0.000316 µM
[31] = second compound 10 µM, first compound 0.001 µM
[32] = second compound 10 µM, first compound 0.00316 µM
[33] = second compound 10 µM, first compound 0.01 µM
[34] = second compound 10 µM, first compound 0.0316 µM
[35] = second compound 10 µM, first compound 0.1 µM
[36] = second compound 0.1 µM, first compound 0.316 µM
[37] = second compound 0.1 µM, first compound 1 µM
[38] = second compound 0.1 µM, first compound 3.16 µM
[39] = second compound 0.1 µM, first compound 10 µM
[40] = second compound 0.316 µM, first compound 0.316 µM
[41] = second compound 0.316 µM, first compound 1 µM
[42] = second compound 0.316 µM, first compound 3.16 µM
[43] = second compound 0.316 µM, first compound 10 µM
[44] = second compound 1 µM, first compound 0.316 µM
[45] = second compound 1 µM, first compound 1 µM
[46] = second compound 1 µM, first compound 3.16 µM
[47] = second compound 1 µM, first compound 10 µM
[48] = second compound 3.16 µM, first compound 0.316 µM
[49] = second compound 3.16 µM, first compound 1 µM
[50] = second compound 3.16 µM, first compound 3.16 µM
[51] = second compound 3.16 µM, first compound 10 µM
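Further: spheroids exposed to agents for seven days before readout.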
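Wherever viability, T/C is given: percent of DMSO vehicle control viability.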

Cn1ncnc1[C@H]1c2n[nH]c(=O)c3cc(F)cc(c23)N[C@@H]1c1ccc(F)cc1 + CC1OCC2(CCN(c3cnc(Sc4ccnc(N)c4Cl)c(N)n3)CC2)C1N
IC50 [1]: > 0.1 µM
IC50 [2]: > 0.1 µM
IC50 [3]: > 0.1 µM
IC50 [4]: > 0.1 µM
IC50 [5]: < 0.000316 µM
viability, T/C [6]: 94.9%
viability, T/C [7]: 94.9%
viability, T/C [8]: 99.9%
viability, T/C [9]: 109%
viability, T/C [10]: 103%
viability, T/C [11]: 94.4%
viability, T/C [12]: 95.5%
viability, T/C [13]: 83.6%
viability, T/C [14]: 98.6%
viability, T/C [15]: 85.5%
viability, T/C [16]: 87.2%
viability, T/C [17]: 76.8%
viability, T/C [18]: 85.7%
viability, T/C [19]: 86%
viability, T/C [20]: 93.2%
viability, T/C [21]: 73.1%
viability, T/C [22]: 74.8%
viability, T/C [23]: 80.8%
viability, T/C [24]: 67.1%
viability, T/C [25]: 58.3%
viability, T/C [26]: 71.4%
viability, T/C [27]: 66%
viability, T/C [28]: 63.6%
viability, T/C [29]: 55.5%
viability, T/C [30]: 46.8%
viability, T/C [31]: 47.1%
viability, T/C [32]: 33.4%
viability, T/C [33]: 40.1%
viability, T/C [34]: 44.2%
viability, T/C [35]: 32.3%

CC1(C)CCC(CN2CCN(c3ccc(C(=O)NS(=O)(=O)c4ccc(NCC5CCOCC5)c([N+](=O)[O-])c4)c(Oc4cnc5[nH]ccc5c4)c3)CC2)=C(c2ccc(Cl)cc2)C1 + CNCc1ccccc1-c1csc(C(C)Nc2nc(C)nc3cc(OC)c(OC)cc23)c1
IC50 [1]: > 10 µM
IC50 [2]: 6.41 µM
IC50 [3]: 4.57 µM
IC50 [4]: < 0.0316 µM
IC50 [5]: < 0.0316 µM
viability, T/C [10]: 99.5%
viability, T/C [11]: 105%
viability, T/C [36]: 101%
viability, T/C [37]: 99.5%
viability, T/C [38]: 82.6%
viability, T/C [39]: 69.9%
viability, T/C [16]: 86%
viability, T/C [17]: 94.3%
viability, T/C [40]: 86.2%
viability, T/C [41]: 80.9%
viability, T/C [42]: 81.4%
viability, T/C [43]: 30.8%
viability, T/C [22]: 82.7%
viability, T/C [23]: 83.7%
viability, T/C [44]: 84.2%
viability, T/C [45]: 78.1%
viability, T/C [46]: 64.6%
viability, T/C [47]: 19.4%
viability, T/C [28]: 33.9%
viability, T/C [29]: 29.8%
viability, T/C [48]: 38.1%
viability, T/C [49]: 32.9%
viability, T/C [50]: 13.1%
viability, T/C [51]: 6.34%
viability, T/C [34]: 0.15%
viability, T/C [35]: 0.15%
viability, T/C (second compound 10 µM, first compound 0.316 µM): 0.13%
viability, T/C (second compound 10 µM, first compound 1 µM): 0.11%
viability, T/C (second compound 10 µM, first compound 3.16 µM): 0.11%
viability, T/C (second compound 10 µM, first compound 10 µM): 0.17%

CCNC(=O)CC1N=C(c2ccc(Cl)cc2)c2cc(OC)ccc2-n2c(C)nnc21 (stereo not drawn) + C=CC(=O)N1CCN(c2nc(OCC3CCCN3C)nc3c2CCN(c2cccc4cccc(C)c24)C3)CC1CC#N
IC50 (curve of first compound, second compound 0.0316 µM): > 10 µM
IC50 [1]: > 10 µM
IC50 [2]: > 10 µM
IC50 [3]: > 10 µM
IC50 [4]: 0.865 µM
viability, T/C (second compound 0.0316 µM, first compound 0.0316 µM): 101%
viability, T/C (second compound 0.0316 µM, first compound 0.1 µM): 99.7%
viability, T/C (second compound 0.0316 µM, first compound 0.316 µM): 88.3%
viability, T/C (second compound 0.0316 µM, first compound 1 µM): 97%
viability, T/C (second compound 0.0316 µM, first compound 3.16 µM): 107%
viability, T/C (second compound 0.0316 µM, first compound 10 µM): 85.9%
viability, T/C [10]: 92.2%
viability, T/C [11]: 110%
viability, T/C [36]: 96.9%
viability, T/C [37]: 107%
viability, T/C [38]: 97.9%
viability, T/C [39]: 86.5%
viability, T/C [16]: 107%
viability, T/C [17]: 104%
viability, T/C [40]: 106%
viability, T/C [41]: 91.4%
viability, T/C [42]: 92.8%
viability, T/C [43]: 90.7%
viability, T/C [22]: 98.4%
viability, T/C [23]: 108%
viability, T/C [44]: 95.8%
viability, T/C [45]: 91%
viability, T/C [46]: 93%
viability, T/C [47]: 85%
viability, T/C [28]: 84%
viability, T/C [29]: 96.2%
viability, T/C [48]: 83.2%
viability, T/C [49]: 25.9%
viability, T/C [50]: 65.9%
viability, T/C [51]: 43.8%

Cn1ncnc1[C@H]1c2n[nH]c(=O)c3cc(F)cc(c23)N[C@@H]1c1ccc(F)cc1 + C=CC(=O)N1CCN(c2nc(=O)n(-c3c(C)ccnc3C(C)C)c3nc(-c4c(O)cccc4F)c(F)cc23)C(C)C1
IC50 [1]: > 0.1 µM
IC50 [2]: > 0.1 µM
IC50 [3]: > 0.1 µM
IC50 [4]: > 0.1 µM
IC50 [5]: > 0.1 µM
viability, T/C [6]: 113%
viability, T/C [7]: 94.8%
viability, T/C [8]: 99.7%
viability, T/C [9]: 102%
viability, T/C [10]: 96.5%
viability, T/C [11]: 92.2%
viability, T/C [12]: 113%
viability, T/C [13]: 102%
viability, T/C [14]: 96.6%
viability, T/C [15]: 101%
viability, T/C [16]: 97.1%
viability, T/C [17]: 92.8%
viability, T/C [18]: 99.9%
viability, T/C [19]: 105%
viability, T/C [20]: 97.9%
viability, T/C [21]: 92.1%
viability, T/C [22]: 114%
viability, T/C [23]: 103%
viability, T/C [24]: 97.7%
viability, T/C [25]: 109%
viability, T/C [26]: 107%
viability, T/C [27]: 89.1%
viability, T/C [28]: 111%
viability, T/C [29]: 99.5%
viability, T/C [30]: 116%
viability, T/C [31]: 106%
viability, T/C [32]: 94.3%
viability, T/C [33]: 96%
viability, T/C [34]: 91.6%
viability, T/C [35]: 96.8%

CNCc1ccccc1-c1csc(C(C)Nc2nc(C)nc3cc(OC)c(OC)cc23)c1 (stereo not drawn)
viability, T/C (compound 10 µM): 0.18% [middle of 14 runs]
IC50 (compound alone, run of 08/26/2021): 2.36 µM [middle of 5 runs]
IC50 (compound alone, run of 09/02/2021): 2.83 µM [middle of 6 runs]
